Laboratory results reported in ChEMBL document CHEMBL5257082, “Bacterial GTPases as druggable targets to tackle antimicrobial resistance” (Bioorg Med Chem Lett, 2023).
In brackets after ≈: the same amount, converted by molar mass.

Legend:
Escherichia coli = assay: Antibacterial activity against Escherichia coli; type: functional
Staphylococcus aureus [1] = assay: Antibacterial activity against Staphylococcus aureus; type: functional
Staphylococcus aureus [2] = assay: Antibacterial activity against methicillin-resistant Staphylococcus aureus; type: functional
[3] = Intrinsic clearance in BALB/c mouse at 24 mg/kg, iv; type: ADME, organism-based; conditions: in vivo
Staphylococcus aureus [4] = assay: Antibacterial activity against linezolid-nonsusceptible Staphylococcus aureus; type: functional
Staphylococcus aureus [5] = assay: Antibacterial activity against vancomycin-resistant Staphylococcus aureus; type: functional
[6] = biological target: T1, Cell division protein FtsZ (Staphylococcus aureus, UniProt P0A031); assay: Inhibition of Staphylococcus aureus FTsZ GTPase activity
T1 sequence (P0A031 whole entry): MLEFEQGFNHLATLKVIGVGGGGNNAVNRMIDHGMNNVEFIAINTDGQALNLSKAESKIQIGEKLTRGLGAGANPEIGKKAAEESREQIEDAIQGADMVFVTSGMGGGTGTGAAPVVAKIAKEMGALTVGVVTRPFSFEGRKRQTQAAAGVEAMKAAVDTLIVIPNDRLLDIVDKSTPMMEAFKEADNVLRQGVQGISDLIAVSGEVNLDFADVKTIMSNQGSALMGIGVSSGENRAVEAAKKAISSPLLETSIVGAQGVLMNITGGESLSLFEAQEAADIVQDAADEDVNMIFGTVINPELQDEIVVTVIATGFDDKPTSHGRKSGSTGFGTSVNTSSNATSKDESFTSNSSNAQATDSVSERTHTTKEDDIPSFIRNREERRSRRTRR

Enterococcus faecalis = assay: Antibacterial activity against Enterococcus faecalis; type: functional
Streptococcus pyogenes = assay: Antibacterial activity against Streptococcus pyogenes; type: functional
Streptococcus pneumoniae = assay: Antibacterial activity against Streptococcus pneumoniae; type: functional
Bacillus subtilis = assay: Antibacterial activity against Bacillus subtilis; type: functional
Haemophilus influenzae = assay: Antibacterial activity against Haemophilus influenzae; type: functional
Enterococcus faecium = assay: Antibacterial activity against Enterococcus faecium; type: functional
Neisseria gonorrhoeae = assay: Antibacterial activity against Neisseria gonorrhoeae; type: functional
Acinetobacter baumannii = assay: Antibacterial activity against Acinetobacter baumannii; type: functional
Klebsiella pneumoniae = assay: Antibacterial activity against Klebsiella pneumoniae; type: functional
Pseudomonas aeruginosa = assay: Antibacterial activity against Pseudomonas aeruginosa; type: functional
Micrococcus luteus = assay: Antibacterial activity against Micrococcus luteus; type: functional
Neisseria meningitidis = assay: Antibacterial activity against Neisseria meningitidis; type: functional

Row | SMILES | MIC (Escherichia coli) [µg/mL] | MIC (Staphylococcus aureus [1]) [µg/mL] | MIC (Staphylococcus aureus [2]) [µg/mL] | MIC (Enterococcus faecalis) [µg/mL] | other results
1 | Cc1cc(Cl)ccc1OC(C)C(=O)Nc1ccc(C(=O)Nc2ccccc2C(=O)O)cc1 (centres undefined) | > 200 | > 25 |  |  | 
2 | CN1CCC(C(=O)NC(=O)c2c(F)ccc(OCc3nc4cc(C(F)(F)F)cnc4s3)c2F)CC1 |  |  | 2 (≈ 3.89 µM) |  | CL [3]: 9.4 mL/min/kg; MIC (Staphylococcus aureus [4]): 2 µg/mL (≈ 3.89 µM); MIC (Staphylococcus aureus [5]): 2 µg/mL (≈ 3.89 µM)
3 | NC(=O)c1c(F)ccc(OCc2nc3cc(Cl)cnc3s2)c1F | > 64 |  | 1 (≈ 2.81 µM) | > 64 | CL [3]: 55.11 mL/min/kg; IC50 [6]: 0.15 µM; MIC (Streptococcus pyogenes): > 64 µg/mL; MIC (Streptococcus pneumoniae): > 64 µg/mL; MIC (Bacillus subtilis): 1 µg/mL (≈ 2.81 µM)
4 | COc1ccc(/C=C(\C#N)C(=O)Nc2cccc(C(=O)O)c2)cc1OC(=O)c1cccc2ccccc12 | > 200 | > 50 |  |  | 
5 | C/C=C\C=C\[C@@H]1C[C@](O)([C@H](CC)C(=O)NC/C=C/C=C(\C)[C@H](OC)[C@H](C)C2O[C@H](/C=C/C=C/C=C(\C)C(=O)c3c(O)cc[nH]c3=O)[C@H](O)[C@@H]2O)[C@H](O)[C@H](O)C1(C)C (some centres undefined) | > 128 | > 32 |  | > 32 | MIC (Haemophilus influenzae): 4 µg/mL (≈ 5.03 µM); MIC (Enterococcus faecium): 2 µg/mL (≈ 2.52 µM); MIC (Neisseria gonorrhoeae): 0.06 µg/mL (≈ 0.0755 µM)
6 | O=C(O)c1[nH]c2ccc(Cl)cc2c1CC(=O)N1CCN(c2ccc(C(F)(F)F)cc2)CC1 | > 200 | > 50 |  |  | 
7 | CO[C@@H]1[C@H](O)[C@@H](OC)[C@H](O[C@@H](C)[C@@H](O)/C=C/C=C/C=C/C(=O)[C@@H](C)[C@@H](O)[C@H](C)C2C/C=C/C=C/C=C/[C@H](O)C(=O)/C(C)=C/C=C/C(C)=C/[C@@H](O)/C(C)=C/CC(=O)O2)O[C@@H]1C (some centres undefined) | 32 (≈ 38.1 µM) | 2 (≈ 2.38 µM) |  | 32 (≈ 38.1 µM) | MIC (Acinetobacter baumannii): 32 µg/mL (≈ 38.1 µM); MIC (Klebsiella pneumoniae): > 128 µg/mL; MIC (Pseudomonas aeruginosa): 32 µg/mL (≈ 38.1 µM)
8 | CC/C=C/[C@@H](OC(N)=O)[C@@H](Cl)[C@H](O)CC(=O)[C@@H](O)[C@H](O)C(C)/C(Cl)=C/C=C/C=C(C)/C=C/C=C/C(=O)O[C@@H]1CC(C(=O)O)CC[C@@H]1O (some centres undefined) |  | 2 (≈ 2.85 µM) |  |  | MIC (Acinetobacter baumannii): > 32 µg/mL; MIC (Pseudomonas aeruginosa): > 32 µg/mL
9 | CC(=O)O[C@H]1C[C@@]2(C)[C@@H](C[C@@H](O)[C@H]3[C@@]4(C)CC[C@@H](O)[C@@H](C)[C@@H]4CC[C@@]32C)/C1=C(\CCC=C(C)C)C(=O)O [FUSIDIC ACID] | > 32 |  | 0.25 (≈ 0.484 µM) | 2 (≈ 3.87 µM) | MIC (Micrococcus luteus): 0.5 µg/mL (≈ 0.968 µM); MIC (Neisseria meningitidis): 0.25 µg/mL (≈ 0.484 µM); MIC (Streptococcus pyogenes): 16 µg/mL (≈ 31 µM)
